Test results reported in patent US20040039039A1, “Fungicidal mixtures” (priority 2003, published 2004).

System: Plasmopara viticola
Test: Protective activity against Peronospora in grapevines caused by Plasmopara viticola
Format: in vivo
Conditions: individual active compound, potted vines
Description: The active compounds, separately or together, were formulated as a 10% emulsion in a mixture of 63% by weight of cyclohexanone and 27% by weight of emulsifier, and diluted with water to the desired concentration.
Evaluation was carried out by determining the infected leaf areas in percent. These percentages were converted into efficacies. The efficacy (W) was calculated as follows using Abbot's formula: […]
α corresponds to the fungal infection of the treated plants in % and β corresponds to the fungal infection of the untreated (control) plants in % An efficacy of 0 means that the infection level of the treated plants corresponds to that of the untreated control plants; an efficacy of 100 means that the treated plants were not infected.
The expected efficacies of the mixtures of the active compounds were determined using Colby's formula [R. S. Colby, Weeds 15, 20-22 (1967)] and compared with the observed efficacies.
Colby's formula: E=x+y−x·y/100
E expected efficacy, expressed in % of the untreated control, when using the mixture of the active compounds A and B at the concentrations a and b x efficacy, expressed in % of the untreated control, when using active compound A at a concentration a y efficacy, expressed in % of the untreated control, when using active compound B at a concentration b.
Protective Activity Against Peronospora in Grapevines Caused by Plasmopara viticola Leaves of potted vines of the cultivar “Müiller-Thurgau” were sprayed to runoff point with an aqueous preparation of active compound which had been prepared using a stock solution comprising 10% of active compound, 85% of cyclohexanone and 5% of emulsifier. The next day, the undersides of the leaves were inoculated with an aqueous zoospore suspension of Plasmopara viticola. The vines were then placed firstly for 48 hours in a water-vapor-saturated chamber at 24° C. and then for 5 days in a greenhouse at 20-30° C. After this period of time, the plants were again placed in a moist chamber for 16 hours to accelerate the sporangiophore eruption. The extent to which the undersides of the leaves had been infected was then determined visually.

Molecule: manganese ethylenebis(dithiocarbamate) (zinc complex) [IIa]
- Efficacy in % of the untreated control (5 ppm in the spray liquor): 11%
- Efficacy in % of the untreated control (10 ppm in the spray liquor): 72%

Molecule: zinc ammoniate ethylenebis(dithiocarbamate) [IIc]
- Efficacy in % of the untreated control (5 ppm in the spray liquor): 0%
- Efficacy in % of the untreated control (10 ppm in the spray liquor): 11%

Molecule: Cc1ccc(-c2c(Cl)nc(C#N)n2S(=O)(=O)N(C)C)cc1 [Ia, cyazofamid]
- Efficacy in % of the untreated control (0.05 ppm in the spray liquor): 56%
- Efficacy in % of the untreated control (0.1 ppm in the spray liquor): 78%
- Efficacy in % of the untreated control (0.2 ppm in the spray liquor): 89%
